Data taken from paper PMC11555231 (Nature Communications, 2024).
Bridge positions count the residues as written; N and C are the ends. Peptide text beside a SMILES is read from it.

Key:
[1] = tested on: cellular PADI4 in hPADI4-stable mES cell extracts; assay: Cell lysate activity assay, H3Cit2 immunoblot, with or without pre-incubation before calcium; type: biochemical, mouse; conditions: inhibitor added 20 mins prior (pre-incubation) or concurrent with calcium
Source text: Neutrophil samples were boiled in a sodium dodecyl sulphate (SDS) buffer containing dithiothreitol (DTT) and run on a polyacrylamide gel electrophoresis (SDS-PAGE) using Criterion TGX precast gels (Any-KD; Bio-Rad Laboratories). Proteins were then transferred to a PVDF membrane (Bio-Rad Laboratories) via semi-dry transfer. The membrane was blocked with 5% BSA (Fisher Scientific) in Tris-buffered saline with 0.1% Tween-20 (TBS-T). Levels of citrullinated histone H3, total H3 and myeloperoxidase (MPO) were assessed by incubating membranes in either anti-histone H3 citrulline R2 + R8 + R17 (Abcam; ab5103 1:1000), anti-histone H3 (Millipore; 07-690 1:10000) or anti-MPO (DAKO; A0398 1:2500) overnight at 4 °C, respectively. For cell lysate-based assays and pull-down assays, membranes were incubated as above with anti-hPADI4 (Abcam; ab50332; 1:1000 in 5% BSA/TBS-T), anti-Bcr (Cell Signalling #3902S; 1:1000 in 3% milk/TBS-T) and anti-Impdh2 (Cell Signalling #57068S; 1:1000 in 3% milk/TBS-T). Membranes were washed in 0.1% TBS-T and subsequently incubated with goat anti-rabbit HRP or anti-goat (Fisher Scientific) for 1 h, followed by final washes in 0.1% TBS-T. Membranes were imaged with enhanced chemiluminescent substrate (ECL) (Thermo Fisher) on a Bio-Rad imager.
Supplementary Figure 2. PADI4_3 is a potent and selective hPADI4 inhibitor. A. […]

hPADI4-stable mES cells = assay: High content microscopy of citrullinated histone H3 (H3Cit) in hPADI4-stable mES cells; type: cell-based, mouse; conditions: mean H3Cit intensity, peptide 1 h, without any other activating stimulus
Protocol: HaLo-GFP-mito HeLa cells were grown in DMEM (Gibco) supplemented with 10% foetal bovine serum (FBS), penicillin/streptomycin (100 µg/ml) and puromycin (1 µg/ml) at 37 °C, 5% CO2. HaLo-GFP-mito HeLa cell line[82] was profiled by short tandem repeat analysis (STR) and tested negative for mycoplasma by the Cell Services Technology Platform at the Francis Crick Institute. E14 –mouse embryonic stem cells (Cambridge Stem Cell Institute, UK) were cultured in plates coated with 1% gelatine in GMEM supplemented with 10% foetal calf serum (FCS) batch-tested for ES cell culture (Gibco), 0.1 mM non-essential amino acids, 2 mM L-glutamine, 1 mM sodium pyruvate, 0.1 mM β-mercaptoethanol and 50 ng/mL leukaemia inhibitory factor (LIF) (ESGRO, Millipore). For PADI4 activation, cells were cultured in GMEM containing 10% knockout serum replacement (KSR, Life Technologies), 1% FCS batch-tested for ES cell culture (Gibco), 0.1 mM non-essential amino acids, L-glutamine, 1 mM sodium pyruvate, 0.1 mM β-mercaptoethanol, 50 ng/mL LIF (ESGRO, Millipore), 1 μM PD0325901 (AxonMedChem) and 3 μM CHIR99021 (AxonMedChem). For the generation of E14 mES stably expressing human PADI4 (hPADI4-stable), human PADI4 cDNA was inserted into ES E14 cells using the piggyBac transposon system. The Gateway system was used to clone human PADI4 into the piggyBac vector using primers PADI4_AttB1_F and PADI4_AttB2_R (Table S4). pPB-CAG-CTRL (empty vector) or pPB-CAG-hPADI4 vectors […] were transfected with the piggyBac transposase (pPBase) expression vector, pCAGPBase […], by lipofection according to the manufacturer’s instructions (Lipofectamine 2000, Invitrogen). E14 cells constitutively expressing the hygromycin resistance gene and human PADI4 were selected and expanded in media containing […] hygromycin.
E14 cells were seeded onto 96-well PerkinElmer cell carrier ultra plates (Phenoplates) coated with 0.1% gelatine, at 25,000 cells per well and grown overnight at 37 °C, 5% CO2. Outer wells were excluded but medium was added to minimise any edge effects. […]

HaLo-GFP-mito HeLa cells = assay: Chloroalkane penetration assay (CAPA); type: in vitro ADME; conditions: CAPA, chloroalkane-tagged peptide, 4 h in Opti-MEM, 37 °C, chase HaLo-Tag TMR ligand 5 µM 15 min, flow cytometry; mean ± SEM of three independent experiments
Protocol: Following the addition of chloroacetyl-NHS to the N-terminal amino group, Cys(mmt) was selectively deprotected using 1% TFA, 5% triisopropylsilane in DCM (30 min, RT). Peptides were then cyclised on resin using 2% diisopropylethylamine in DMF overnight. Following cyclisation, Lys(ivDde) was deprotected using 2% hydrazine in DMF. The resin was then washed (3 x DCM, 3 x DMF) before on-resin coupling of chloroalkane carboxylic acid was performed on the lysine side chain using Hexafluorophosphate Azabenzotriazole Tetramethyl Uronium / diisopropylethylamine in DMF for 2 h. Global deprotection and purification were then carried out as described above. Chloroalkane carboxylate was synthesised as previously described.
CAPA assays were performed following the protocol published in ref. [51]. In brief, 40,000 HaLo- GFP-mito HeLa cells were seeded in a 96-well plate. Twenty-four hours later, cells were treated with different concentrations of chloroalkane-tagged peptides (100 µM to 200 nM for PADI4_3 and PADI4_3i and 50 µM to 100 nM for PADI4_11 and PADI4_11i) for 4 h in Opti-MEM. Media containing peptides was then removed, and cells were incubated with Opti-MEM (Gibco) for 15 min. After that time, the wash was removed, and cells were chased with HaLo-Tag TMR ligand (5 µM, Promega) in Opti-MEM for 15 min. The ligand was then removed, and cells were incubated with Opti-MEM for 30 min. Cells were then trypsinised, resuspended in phosphate-buffered saline (PBS) with 0.5% FBS and analysed using a benchtop flow cytometer (MACSQuant® VYB Flow cytometer Milteny Biotec). For each well, 10000 GFP positive single cells were analysed (gating workflow shown in Supplementary Fig. 18), and TMR mean fluorescence was normalised against a positive control (cells treated with HaLo-Tag TMR ligand but no peptide) and a negative control (non-treated cells). Analysis was performed using FlowJo (LCC) software and Prism GraphPad (Dotmatics). Data were presented as the average ± standard error of three independent replicates.

[2] = tested on: calcium influx into cells; assay: Calcium imaging with Calbryte 520 AM; type: cell-based; conditions: Calbryte intensity, 25 µM peptide, 60 min
Protocol: Calbryte™ 520 AM dye (https://www.aatbio.com/products/calbryte-520-am) was used for quantification of calcium influx into cells. Cells were seeded onto 10 mm optical imaging plates at 10^5 cells per dish and allowed to attach overnight. Cells were stained with 10 μM Calbryte dye in normal growth medium for 1 h, 37 °C, 5% CO2, washed once with cell culture medium and imaged using a Nikon Wide-field microscope. A time series was performed, with a 488 laser image taken every second. After 1 min of imaging (baseline readings), PADI4_11 (25 μM), PADI4_11i (25 μM) or calcium ionophore (10 μM, as positive control) were added, and cells were imaged for a further 60 min. Analysis was done using imageJ —region of interest (ROI) were taken for each cell at each time point using ROI manager. Background values (ROI with no cells) were taken at each time point and removed from the same background reading (i.e. ROI at 1 second with cells minus ROI at 1 s background value). An average of at least ten cells was taken for each condition and each average data point was divided by the initial average data point for that cell, to obtain overall response.

CP50 (HaLo-GFP-mito HeLa cells)	Structure (SMILES)	inhibition of histone 3 citrullination (H3Cit) in cell lysates containing active cellular PADI4 [1]	PADI4 activation in cells (in words) (hPADI4-stable mES cells)	intracellular calcium levels (calcium influx) [2]
–	COc1cc(C(=O)N2CC[C@@H](O)[C@@H](N)C2)cc2nc(-c3cc4ccccc4n3CC3CC3)n(C)c12 [GSK484]	required pre-incubation to be active	–	–
2.0 ± 0.5 µM	CC(C)C[C@H](NC(=O)[C@H](CCC(N)=O)NC(=O)[C@H](CC(C)C)NC(=O)[C@@H](NC(=O)[C@H](CCC(N)=O)NC(=O)[C@H](CCCNC(=N)N)NC(=O)[C@H](Cc1ccc(O)cc1)NC(=O)[C@H](CCCNC(=N)N)NC(=O)[C@@H]1CSCC(=O)N[C@@H](Cc2ccc(O)cc2)C(=O)N[C@@H](CO)C(=O)N[C@@H](CCC(=O)O)C(=O)N1)C(C)C)C(N)=O [PADI4_11i] ({CH2CO}-YSECRYRQVLQL-NH2; thioether N-4)	–	does not have the same effect	neither PADI4_11, nor PADI4_11i, were responsible for increased intracellular calcium levels
